Assays:
HCV NS3 protease domain = target: T1, HCV NS3 protease domain (Hepatitis C virus genotype 1b, UniProt Q9WMX2); assay: biochemical; details: Enzyme Assay 1 (HCV NS3 Protease Domain Peptide Cleavage Assay) activity, apparent Ki class
T1 construct: The first 181 amino acids of NS3 (residues 1027-1207 of the viral polyprotein); hexa-histidine (C); made in house; host or cells: E. coli BL21/DE3 pLysS

[1] = target: T2, full-length hepatitis C viral protein NS3•4A (Hepatitis C virus genotype 1a, UniProt P27958); assay: biochemical; set-up: species or system HCV sub-type strain 1a
T2 construct: hexa-histidine (N); made in house; host or cells: Sf9 insect cells (baculovirus, pVL1392)

[2] = Enzyme Assay 2 (HCV NS3 Peptide Cleavage Assay) activity, apparent Ki class
[3] = Enzyme Assay 2, HCV NS3 Peptide Cleavage Assay, apparent Ki

Structure (SMILES)	Ki (HCV NS3 protease domain)	Ki [1, 2]	Ki [1, 3]
CCC[C@H](NC(=O)[C@@H]1C[C@]2(CC(c3ccccc3C#N)=NO2)CN1C(=O)[C@@H](NC(=O)CC1CCCCC1)C(C)(C)C)C(=O)C(=O)NC1CC1 [Compound 28]	> 500 nM	100 to 500 nM	
CCC[C@H](NC(=O)[C@@H]1C[C@]2(CC(c3cccc(Cl)c3)=NO2)CN1C(=O)CC(C)(C)C)C(=O)C(=O)NC1CC1 [Compound 351]	> 500 nM	> 500 nM	
C=CCOC(=O)N[C@H](C(=O)N1C[C@@]2(CC(c3cccc(Cl)c3)=NO2)C[C@H]1C(=O)N[C@]1(C(=O)O)C[C@H]1C=C)C(C)(C)C [Compound 460]	> 500 nM	> 500 nM	
CCC[C@H](NC(=O)[C@@H]1C[C@]2(CC(c3cccc(Cl)c3)=NO2)CN1C(=O)[C@@H](NC(=O)CC1CCCCC1)C(C)(C)C)C(=O)C(=O)N1CCCC1 [Compound 496]	> 500 nM	> 500 nM	
CCC[C@H](NC(=O)[C@@H]1C[C@]2(CC(c3cccc(Cl)c3)=NO2)CN1C(=O)[C@@H](NC(=O)CC1CCCCC1)C(C)(C)C)C(=O)C(=O)Nc1ccc2c(C)cc(=O)[nH]c2c1 [Compound 181]	> 500 nM	> 500 nM	
CCC[C@H](NC(=O)[C@@H]1C[C@]2(CC(c3ccc(C)c(Cl)c3)=NO2)CN1C(=O)[C@@H](NC(=O)CC1CCCCC1)C(C)(C)C)C(=O)C(=O)NC1CC1 [Compound 3]	100 to 500 nM	< 100 nM	
CCC[C@H](NC(=O)[C@@H]1C[C@]2(CC(c3cccc(Cl)c3)=NO2)CN1C(=O)[C@@H](NC(=O)CC1CCCCC1)C(C)(C)C)C(=O)C(=O)NCc1csc(-c2ccccc2)n1 [Compound 176]	100 to 500 nM	100 to 500 nM	
CCC[C@H](NC(=O)[C@@H]1C[C@]2(CC(c3cc(Cl)cc(OC)c3OC)=NO2)CN1C(=O)[C@@H](NC(=O)CC1CCCCC1)C(C)(C)C)C(=O)C(=O)NC1CC1 [Compound 321]	100 to 500 nM	< 100 nM	
CCC[C@H](NC(=O)[C@@H]1C[C@]2(CC(c3cccc(Cl)c3)=NO2)CN1C(=O)[C@@H](NC(=O)C=C1CCCCC1)C(C)(C)C)C(=O)C(=O)NC1CC1 [Compound 252]	100 to 500 nM	< 100 nM	
CCC[C@H](NC(=O)[C@@H]1C[C@]2(CC(CC)=NO2)CN1C(=O)[C@@H](NC(=O)NC(C)(C)C)C(C)(C)C)C(=O)C(=O)NC1CC1 [Compound 559]	> 500 nM	> 500 nM	
CCC[C@H](NC(=O)[C@@H]1C[C@]2(CC(c3cccc(Cl)c3)=NO2)CN1C(=O)C(NS(=O)(=O)c1ccc(F)cc1)C(C)C)C(=O)C(=O)NC1CC1 (stereo partly shown) [Compound 100]	> 500 nM	> 500 nM	
CCC[C@H](NC(=O)[C@@H]1C[C@]2(CC(c3cccc(Cl)c3)=NO2)CN1C(=O)[C@@H](NC(=O)OCC1(C)COC1)C(C)(C)C)C(=O)C(=O)NC1CC1 [Compound 957]			100 to 500 nM
COc1cc(OC)c(C2=NO[C@]3(C2)C[C@@H](C(=O)N[C@@H](CC2CC2)C(=O)C(N)=O)N(C(=O)[C@@H](NC(=O)CC2CCCCC2)C(C)(C)C)C3)cc1Cl [Compound 562]		< 100 nM	
CCOc1cc(OC)c(C2=NO[C@]3(C2)C[C@@H](C(=O)N[C@@H](CC2CC2)C(=O)C(N)=O)N(C(=O)[C@@H](NC(=O)CC2CCCCC2)C(C)(C)C)C3)cc1Cl [Compound 972]			< 100 nM
COc1cc(OC)c(C2=NO[C@]3(C2)C[C@@H](C(=O)N[C@@H](CC2CC2)C(=O)C(N)=O)N(C(=O)[C@@H](NC(=O)OC(C)(C)C)C(C)(C)C)C3)cc1Cl [Compound 264]		< 100 nM	
CCC[C@H](NC(=O)[C@@H]1C[C@]2(CC(c3ccc(F)c(Cl)c3)=NO2)CN1C(=O)[C@@H](NC(=O)OC(C)(C)C)C(C)(C)C)C(=O)C(=O)NC [Compound 631]		< 100 nM	
CCC[C@H](NC(=O)[C@@H]1C[C@]2(CC(c3cccc(Cl)c3)=NO2)CN1C(=O)[C@@H](NC(=O)[C@H]1C[C@@H]1C1CCCC1)C(C)(C)C)C(=O)C(=O)NC1CC1 [Compound 953]			< 100 nM
CCC[C@H](NC(=O)[C@@H]1C[C@]2(CC(c3ccc(NC)c(Cl)c3)=NO2)CN1C(=O)[C@@H](NC(=O)CC1CCCCC1)C(C)(C)C)C(=O)C(=O)NC1CC1 [Compound 771]		< 100 nM	
CCC[C@H](NC(=O)[C@@H]1C[C@]2(CC(c3cc(C)c(OCC)c(C)c3)=NO2)CN1C(=O)[C@@H](NC(=O)C1CC1c1ccncc1)C(C)(C)C)C(=O)C(=O)NC1CC1 (stereo partly shown) [Compound 982]			100 to 500 nM
CNC(=O)C(=O)[C@H](CC1CC1)NC(=O)[C@@H]1C[C@]2(CC(c3cccc(Cl)c3)=NO2)CN1C(=O)[C@@H](NC(=O)[C@@H]1C[C@@H]1c1ccccn1)C(C)(C)C [Compound 886]			< 100 nM
CCC[C@H](NC(=O)[C@@H]1C[C@]2(CC(c3cccc(Cl)c3)=NO2)CN1C(=O)[C@@H](NC(=O)CC1CCCCC1)C1(OC)CC1)C(=O)C(=O)NC1CC1 [Compound 211]		< 100 nM	
CCC[C@H](NC(=O)[C@@H]1C[C@]2(CC(c3cc(C)c(OC)c(C)c3)=NO2)CN1C(=O)[C@@H](NC(=O)OC1CCCC1)C(C)(C)C)C(=O)C(N)=O [Compound 760]		< 100 nM	

Structure (SMILES)	Ki (HCV NS3 protease domain)	Ki [1, 2]	Ki [1, 3]
COc1c(C)cc(C2=NO[C@]3(C2)CC(C(=O)N[C@H](CC2CC2)C(=O)C(N)=O)N(C(=O)[C@@H](NC(=O)CC2CCCCC2)C(C)(C)C)C3)cc1Cl (stereo partly shown) [Compound 658]		100 to 500 nM	
CCC[C@H](NC(=O)[C@@H]1C[C@]2(CC(c3cc(C)c(OCC)c(C)c3)=NO2)CN1C(=O)[C@@H](NC(=O)[C@H]1C[C@@H]1c1ccc(F)cc1)C(C)(C)C)C(=O)C(=O)NC [Compound 997]			< 100 nM
COc1c(C)cc(C2=NO[C@]3(C2)C[C@@H](C(=O)N[C@@H](CC2CC2)C(=O)C(N)=O)N(C(=O)[C@@H](NC(=O)CC2CCCCCC2)C(C)(C)C)C3)cc1C [Compound 730]		< 100 nM	
CCOc1c(C)cc(C2=NO[C@]3(C2)C[C@@H](C(=O)N[C@@H](CC2CC2)C(=O)C(N)=O)N(C(=O)[C@@H](NC(=O)CC2CCCCC2)C(C)(C)C)C3)cc1C [Compound 975]			< 100 nM
CNC(=O)C(=O)[C@H](CC1CC1)NC(=O)[C@@H]1C[C@]2(CC(c3cccc(Cl)c3)=NO2)CN1C(=O)[C@@H](NC(=O)CC1CC2CCC1C2)C(C)(C)C (stereo partly shown) [Compound 716]		< 100 nM	
CNC(=O)C(=O)[C@H](CC1CC1)NC(=O)[C@@H]1C[C@]2(CC(c3cc(Cl)ccc3OC)=NO2)CN1C(=O)[C@@H](NC(=O)[C@H]1C[C@@H]1c1ccccc1)C(C)(C)C [Compound 903]			< 100 nM
COc1cc(OC)c(C2=NO[C@]3(C2)C[C@@H](C(=O)N[C@@H](CC2CC2)C(=O)C(=O)NC2CC2)N(C(=O)[C@@H](NC(=O)OC(C)(C)C)C(C)(C)C)C3)cc1Cl [Compound 745]		< 100 nM	
CCC[C@H](NC(=O)[C@@H]1C[C@]2(CC(c3ccc(F)c(Cl)c3)=NO2)CN1C(=O)[C@@H](NC(=O)CC1CCCCC1)C(C)(C)C)C(=O)C(=O)NC [Compound 609]		< 100 nM	
CC(C)(C)[C@H](NC(=O)CC1CCCCCC1)C(=O)N1C[C@@]2(CC(c3cccc(Cl)c3)=NO2)C[C@H]1C(=O)N[C@@H](CC1CC1)C(=O)C(N)=O [Compound 219]		< 100 nM	
CCNC(=O)C(=O)[C@H](CC1CC1)NC(=O)[C@@H]1C[C@]2(CC(c3cc(Cl)ccc3OC)=NO2)CN1C(=O)[C@@H](NC(=O)[C@@H]1C[C@H]1c1ccccc1)C(C)(C)C [Compound 970]			< 100 nM
CCC[C@H](NC(=O)[C@@H]1C[C@]2(CC(c3cnc(OC)nc3OC)=NO2)CN1C(=O)[C@@H](NC(=O)OC1CCCC1)C(C)(C)C)C(=O)C(=O)NC1CC1 [Compound 678]		100 to 500 nM	
CCC[C@H](NC(=O)[C@@H]1C[C@]2(CC(c3cc(C)c(OCC)c(C)c3)=NO2)CN1C(=O)[C@@H](NC(=O)[C@H]1C[C@@H]1c1ccc(F)cc1)C(C)(C)C)C(=O)C(=O)NC1CC1 [Compound 996]			< 100 nM
CNC(=O)C(=O)[C@H](CC1CC1)NC(=O)[C@@H]1C[C@]2(CC(c3cccc(Cl)c3)=NO2)CN1C(=O)[C@@H](NC(=O)OC1CCC1)C(C)(C)C [Compound 851]			< 100 nM
CCC[C@H](NC(=O)[C@@H]1C[C@]2(CC(c3cc(Cl)c4c(c3)OCCO4)=NO2)CN1C(=O)[C@@H](NC(=O)CC1CCCCC1)C(C)(C)C)C(=O)C(=O)NC [Compound 674]		< 100 nM	
CNC(=O)C(=O)[C@H](CC1CC1)NC(=O)[C@@H]1C[C@]2(CC(c3cccc(Cl)c3)=NO2)CN1C(=O)[C@@H](NC(=O)[C@@H]1C[C@H]1c1ccccc1)C(C)(C)C [Compound 696]		< 100 nM	
CNC(=O)C(=O)[C@H](CC1CC1)NC(=O)[C@@H]1C[C@]2(CC(c3cc(Cl)c(OC)cc3C)=NO2)CN1C(=O)[C@@H](NC(=O)CC1CCCCC1)C(C)(C)C [Compound 662]		100 to 500 nM	
CCC[C@H](NC(=O)[C@@H]1C[C@@]2(CC(c3cccc4cccnc34)=NO2)CN1C(=O)[C@@H](NC(=O)CC1CCCCC1)C(C)(C)C)C(=O)C(=O)NC1CC1 [Compound 31]		100 to 500 nM	
CCC[C@H](NC(=O)[C@@H]1C[C@]2(CC(c3cc(C)c(OCC)c(C)c3)=NO2)CN1C(=O)[C@@H](NC(=O)[C@@H]1C[C@H]1c1ccc(F)cc1)C(C)(C)C)C(=O)C(=O)NC [Compound 995]			< 100 nM
CCC[C@H](NC(=O)[C@@H]1C[C@]2(CC(c3ccc(F)c(Cl)c3)=NO2)CN1C(=O)[C@@H](NC(=O)CC1CCCCCC1)C(C)(C)C)C(=O)C(N)=O [Compound 623]		< 100 nM	
COc1ccc(Cl)cc1C1=NO[C@]2(C1)C[C@@H](C(=O)N[C@@H](CC1CC1)C(=O)C(N)=O)N(C(=O)[C@@H](NC(=O)CC1CCCCC1)C(C)(C)C)C2 [Compound 633]		< 100 nM	
CNC(=O)C(=O)[C@H](CC1CC1)NC(=O)[C@@H]1C[C@]2(CC(c3cc(C)c(OC)c(Cl)c3)=NO2)CN1C(=O)[C@@H](NC(=O)CC1CCCCC1)C(C)(C)C [Compound 642]		< 100 nM	
CCC[C@H](NC(=O)[C@@H]1C[C@]2(CC(c3cc(Cl)c(OC)cc3C)=NO2)CN1C(=O)[C@@H](NC(=O)CC(C)(C)C)C(C)(C)C)C(=O)C(N)=O [Compound 624]		100 to 500 nM	

From patent publication US7964624B1, “Inhibitors of serine proteases” (priority 2005, dated 2011)
